Results published in paper PMC6631792, “In Vitro and In Vivo Anti-Breast Cancer Activities of Some Newly Synthesized 5-(thiophen-2-yl)thieno-[2,3-d]pyrimidin-4-one Candidates” (Molecules, 2019).
Read-outs that look alike come from different tables or passages of the source.

Tests used:
[1] = Average animal weight in MCF-7 mouse xenograft model; format: in vivo; details: nude mice with MCF-7 xenograft, i.p.; for Average Weight of Animals in Grams after Days 0: day 0; for Average Weight of Animals in Grams after Days 2: day 2; for Average Weight of Animals in Grams after Days 4: day 4; for Average Weight of Animals in Grams after Days 6: day 6; for Average Weight of Animals in Grams after Days 8: day 8; for Average Weight of Animals in Grams after Days 10: day 10; for Average Weight of Animals in Grams after Days 12: day 12; for Average Weight of Animals in Grams after Days 14: day 14; for Average Weight of Animals in Grams after Days 16: day 16; for Average Weight of Animals in Grams after Days 18: day 18; for Average Weight of Animals in Grams after Days 20: day 20; for Average Weight of Animals in Grams after Days 22: day 22
Description: “In this work, MCF-7 mouse xenograft model was used. The animal protocol was approved by the Institutional Animal Use Ethics and Care Committee of the University of Alabama at Birmingham (50-01-05-08B). Female athymic pathogen-free nude mice (nu/nu, 4–6 weeks) were purchased from Frederick Cancer Research and Development Center (Frederick, MD, USA). To establish MCF-7 human breast cancer xenografts, each of the female nude mice was first implanted with a 60-day (subcutaneously, s.c.) slow release estrogen pellet (SE-121, 1.7 mg […]/pellet; Innovative Research of America, Sarasota, FL, USA). After 24 h, grown cells were harvested, washed twice with serum-free medium, resuspended, and injected subcutaneously (5 million cells/0.2 mL) into the left inguinal area of the mice. During the experiment, animals were checked periodically and the percentages of tumor growth, as well as animal weights, were recorded. Every 48 h, the size of the tumor was recorded by measuring two perpendicular diameters of the tumor and tumor volume was calculated according to Wang et al. [46]”.
“Treated animals and control groups (7–10 mice/group) received different compounds and vehicles, respectively. The tested compounds were dissolved in PEG400:ethanol:saline (57.1:14.3:28.6, v/v/v), and injected intraperitoneal (i.p.) at doses of […], 3 d/wk for 3 weeks. The higher dose (10 µM/kg/d, 3 d/wk) inhibited MCF-7 xenograft tumor growth”.

[2] = system: MCF-7 cells; assay: MTT cytotoxic assay on MCF-7 cells; format: cell-based, Human
Description: “Human breast cancer cells (MCF-7) and normal non-tumorigenic MCF-10A cells were used throughout the work. Cells were obtained from ATCC, Gaithersburg, MD, USA. Standard MTT assay was used to explore the possible cytotoxic effects of the synthesized compounds [41, 42]. Medium composition, cultivation conditions and assay performance were exactly the same as our previous work. […] After MTT addition, the absorbance of the dissolved formazan crystals was read at 570 nm. The IC50 values were obtained with linear regression equations using Origin® 6.1 software (Origin Lab Corporation, Northampton, MA, USA)”.

| Compound | Average Weight of Animals in Grams after Days 0 [1] [Grams] | Average Weight of Animals in Grams after Days 2 [1] [Grams] | Average Weight of Animals in Grams after Days 4 [1] [Grams] | Average Weight of Animals in Grams after Days 6 [1] [Grams] | Average Weight of Animals in Grams after Days 8 [1] [Grams] | Average Weight of Animals in Grams after Days 10 [1] [Grams] | Average Weight of Animals in Grams after Days 12 [1] [Grams] | Average Weight of Animals in Grams after Days 14 [1] [Grams] | Average Weight of Animals in Grams after Days 16 [1] [Grams] | Average Weight of Animals in Grams after Days 18 [1] [Grams] | Average Weight of Animals in Grams after Days 20 [1] [Grams] | Average Weight of Animals in Grams after Days 22 [1] [Grams] | IC50 ([2]; Homo sapiens, MCF7) [µM] | IC50 [2] [µM] |
| --- | --- | --- | --- | --- | --- | --- | --- | --- | --- | --- | --- | --- | --- | --- |
| Milaplatin [reference compound] |  |  |  |  |  |  |  |  |  |  |  |  |  | 18.43 ± 0.13 |
| CC(=O)NNC(=O)Cn1cnc2scc(-c3cccs3)c2c1=O [Compound 13, N′-acetyl-2-(4-oxo-5-(thiophen-2-yl)thieno[2,3-d]pyrimidin-3(4H)-yl)aceto-hydrazide] | 25.4 | 25.4 | 25.4 | 25.4 | 25.4 | 25.3 | 25.3 | 25.3 | 25.3 | 25.3 | 25.3 | 25.3 | 3.64 ± 0.074 |  |
| O=C(Cn1cnc2scc(-c3cccs3)c2c1=O)NNC(=S)Nc1ccccc1 [Compound 10, 2-(2-(4-oxo-5-(thiophen-2-yl)thieno[2,3-d]pyrimidin-3(4H)-yl)acetyl)-N-phenylhydrazine-1-carbothioamide] | 24.9 | 24.9 | 24.9 | 24.9 | 24.8 | 24.8 | 24.8 | 24.4 | 24.4 | 24.4 | 24.4 | 24.4 | 3.55 ± 0.065 |  |
| Cc1cc(=O)n(C(=O)Cn2cnc3scc(-c4cccs4)c3c2=O)[nH]1 [Compound 12, 3-(2-(3-methyl-5-oxo-2,5-dihydro-1H-pyrazol-1-yl)-2-oxoethyl)-5-(thiophen-2-yl)thieno-[2,3-d]pyrimidin-4(3H)-one] | 27.4 | 27.4 | 27.4 | 27.3 | 27.3 | 27.3 | 27.2 | 27.2 | 27.2 | 27.1 | 27.1 | 27.1 | 3.36 ± 0.063 |  |
| CCOC(=O)Cn1cnc2scc(-c3cccs3)c2c1=O [Compound 3, ethyl 2-(4-oxo-5-(thiophen-2-yl)thieno[2,3-d]pyrimidin-3(4H)-yl)acetate] | 28 | 28 | 28 | 28 | 28.2 | 27.9 | 27.8 | 27.7 | 27.7 | 27.6 | 27.7 | 27.7 | 5.98 ± 0.099 |  |
| O=c1oc(Cn2cnc3scc(-c4cccs4)c3c2=O)nc2ccccc12 [Compound 5, 2-((4-oxo-5-(thiophen-2-yl)thieno[2,3-d]pyrimidin-3(4H)-yl)methyl)-4H-benzo[d]-[1,3] oxazin-4-one] | 22.9 | 22.9 | 22.9 | 22.8 | 22.8 | 22.7 | 22.8 | 22.7 | 22.9 | 22.6 | 22.6 | 22.5 | 4.76 ± 0.087 |  |
| N.N.[Cl][Pt][Cl] [Cisplatin, reference compound] |  |  |  |  |  |  |  |  |  |  |  |  |  | 13.34 ± 0.11 |

More lines, main results first:

| Average Weight of Animals in Grams after Days 0 [1] [Grams] | Average Weight of Animals in Grams after Days 2 [1] [Grams] | Average Weight of Animals in Grams after Days 4 [1] [Grams] | Average Weight of Animals in Grams after Days 6 [1] [Grams] | Average Weight of Animals in Grams after Days 8 [1] [Grams] | Average Weight of Animals in Grams after Days 10 [1] [Grams] | Average Weight of Animals in Grams after Days 12 [1] [Grams] | Average Weight of Animals in Grams after Days 14 [1] [Grams] | Average Weight of Animals in Grams after Days 16 [1] [Grams] | Average Weight of Animals in Grams after Days 18 [1] [Grams] | Average Weight of Animals in Grams after Days 20 [1] [Grams] | Average Weight of Animals in Grams after Days 22 [1] [Grams] | Compound | IC50 ([2]; Homo sapiens, MCF7) [µM] | IC50 [2] [µM] |
| --- | --- | --- | --- | --- | --- | --- | --- | --- | --- | --- | --- | --- | --- | --- |
| 26.5 | 26.4 | 26.3 | 26.2 | 26.1 | 25.9 | 25.9 | 25.9 | 25.8 | 25.8 | 25.7 | 25.7 | Nc1cc(O)cc(=O)n1NC(=O)Cn1cnc2scc(-c3cccs3)c2c1=O [Compound 14, N-(6-Amino-4-hydroxy-2-oxopyridin-1(2H)-yl)-2-(4-oxo-5-(thiophen-2-yl)thieno[2,3-d]-pyrimidin-3(4H)-yl)acetamide] | 1.19 ± 0.042 |  |
| 26.1 | 26.1 | 26.1 | 25.8 | 25.8 | 25.7 | 25.7 | 25.6 | 25.6 | 25.5 | 25.5 | 25.2 | NC1=CC(N)N(NC(=O)Cn2cnc3scc(-c4cccs4)c3c2=O)C=C1 (stereo not shown) [Compound 15, N-(2,4-Diaminopyridin-1(2H)-yl)-2-(4-oxo-5-(thiophen-2-yl)thieno[2,3-d]-pyrimidin-3(4H)-yl)acetamide] | 1.18 ± 0.032 |  |
| 25.3 | 25.3 | 25.2 | 25.2 | 25.2 | 25.1 | 25.1 | 24.8 | 24.7 | 24.6 | 24.5 | 24.2 | COc1cccc(C2SCC(=O)N2NC(=O)Cn2cnc3scc(-c4cccs4)c3c2=O)c1OC (stereo not shown) [Compound 8, N-(2-(2,3-Dimethoxyphenyl)-4-oxothiazolidin-3-yl)-2-(4-oxo-5-(thiophen-2-yl)thieno[2,3-d]pyrimidin-3(4H)-yl)acetamide] | 1.26 ± 0.052 |  |
| 26.6 | 26.6 | 26.6 | 26.5 | 26.6 | 26.6 | 26.4 | 26.3 | 26.3 | 26.3 | 26.3 |  | O=C(Cn1cnc2scc(-c3cccs3)c2c1=O)NN1C(=O)CSC1=Nc1ccccc1 [Compound 11, N-(4-oxo-2-(phenylimino)thiazolidin-3-yl)-2-(4-oxo-5-(thiophen-2-yl)thieno[2,3-d]-pyrimidin-3(4H)-yl)acetamide] | 2.48 ± 0.054 |  |
